Measured values reported in ChEMBL document CHEMBL1145128, “New prolyl oligopeptidase inhibitors developed from dicarboxylic acid bis(l-prolyl-pyrrolidine) amides” (J Med Chem, 2003).

How the values were obtained:
Prolyl endopeptidase = Prolyl endopeptidase (Sus scrofa, UniProt P23687)
Description: In vitro inhibition of prolyl oligopeptidase (POP) from pig brain

[1] = target: Prolyl endopeptidase (Sus scrofa) (UniProt P23687); assay: Compound was tested for in vitro inhibition of prolyl oligopeptidase (POP) from pig brain at 0.1 mM
[2] = Partition coefficient (logP); assay type: physicochemical; settings: octanol/water

Sequence of Prolyl endopeptidase (P23687 whole entry): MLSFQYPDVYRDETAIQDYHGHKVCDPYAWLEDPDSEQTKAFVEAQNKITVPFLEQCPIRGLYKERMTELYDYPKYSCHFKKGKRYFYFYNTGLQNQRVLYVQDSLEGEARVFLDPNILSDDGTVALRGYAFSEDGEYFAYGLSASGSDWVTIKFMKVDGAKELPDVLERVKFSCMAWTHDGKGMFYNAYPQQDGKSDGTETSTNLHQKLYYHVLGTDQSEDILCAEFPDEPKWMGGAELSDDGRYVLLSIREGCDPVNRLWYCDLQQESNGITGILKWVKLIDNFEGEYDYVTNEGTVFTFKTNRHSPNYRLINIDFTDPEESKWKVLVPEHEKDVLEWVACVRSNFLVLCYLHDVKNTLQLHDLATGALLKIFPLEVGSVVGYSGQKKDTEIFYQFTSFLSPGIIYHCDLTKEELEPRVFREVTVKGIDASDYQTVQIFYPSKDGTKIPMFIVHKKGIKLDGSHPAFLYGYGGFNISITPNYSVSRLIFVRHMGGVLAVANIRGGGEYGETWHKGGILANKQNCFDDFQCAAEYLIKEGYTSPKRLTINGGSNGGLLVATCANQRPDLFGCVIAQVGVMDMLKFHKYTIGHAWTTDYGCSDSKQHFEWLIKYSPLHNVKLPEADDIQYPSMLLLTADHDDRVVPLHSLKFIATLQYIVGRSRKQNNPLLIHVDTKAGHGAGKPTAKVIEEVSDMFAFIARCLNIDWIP
Sequence of Prolyl endopeptidase (Sus scrofa) (P23687 whole entry, looked up): as the sequence (P23687 whole entry) above

Structure (SMILES) | IC50 (Prolyl endopeptidase) | inhibition [1] | logP [2]
COC(=O)[C@H]1CCCN1C(=O)c1cccc(C(=O)N2CCC[C@H]2C(=O)N2CCCC2)c1 | 54 nM | – | –
CC(=O)[C@H]1CCCN1C(=O)c1cccc(C(=O)N2CCC[C@H]2C(C)=O)c1 | – | 54% | –
O=C([C@H]1CCCN1C(=O)c1cccc(C(=O)N2CCC[C@H]2C(=O)N2CCCCCC2)c1)N1CCCC1 | 23 nM | – | –
N#C[C@H]1CCCN1C(=O)[C@@H]1CCCN1C(=O)c1cccc(C(=O)N2CCC[C@@H]2C(=O)c2ccccc2)c1 | 1.3 nM | – | 1.1
O=C(NCC(=O)N1CCCC1)c1cccc(C(=O)NCC(=O)N2CCCC2)c1 | 640 nM | – | –
O=C([C@H]1CCCN1C(=O)c1cccc(C(=O)N2CCC[C@H]2C(=O)N2CCNCC2)c1)N1CCCC1 | 33 nM | – | –
CC(C)(CC(=O)N1CCC[C@H]1C(=O)C1CCCC1)CC(=O)N1CCC[C@H]1C(=O)N1CCC[C@H]1C#N | 0.57 nM | – | –
O=C(N[C@@H](Cc1ccccc1)C(=O)N1CCCC1)c1cccc(C(=O)N[C@H](Cc2ccccc2)C(=O)N2CCCC2)c1 | 81 nM | – | –
CC(C)(C)OC(=O)N1CCN(C(=O)[C@H]2CCCN2C(=O)c2cccc(C(=O)N3CCC[C@H]3C(=O)N3CCCC3)c2)CC1 | 170 nM | – | –
C[C@H](NC(=O)c1cccc(C(=O)N2CCC[C@H]2C(=O)N2CCCC2)c1)C(=O)N1CCCC1 | 39 nM | – | –
O=C(c1ccccc1)[C@H]1CCCN1C(=O)c1cccc(C(=O)N2CCC[C@H]2C(=O)N2CCCC2)c1 | 18 nM | – | –
CSCC[C@H](NC(=O)c1cccc(C(=O)N[C@H](CCSC)C(=O)N2CCCC2)c1)C(=O)N1CCCC1 | 110 nM | – | –
O=C(NCc1ccccc1)[C@@H]1CCCN1C(=O)c1cccc(C(=O)N2CCC[C@@H]2C(=O)N2CCCC2)c1 | 31 nM | – | –
C[C@H](NC(=O)c1cccc(C(=O)N[C@H](C)C(=O)N2CCCC2)c1)C(=O)N1CCCC1 | 87 nM | – | –

More lines, now with the values ahead:

IC50 (Prolyl endopeptidase) | inhibition [1] | logP [2] | Structure (SMILES)
14 nM | – | – | O=C(C1CCCC1)[C@H]1CCCN1C(=O)c1cccc(C(=O)N2CCC[C@H]2C(=O)N2CCCC2)c1
– | – | -0.2 | O=C([C@@H]1CCCN1C(=O)c1cccc(C(=O)N2CCC[C@H]2C(=O)N2CCCC2)c1)N1CCCC1
1.6 nM | – | 0.3 | CC(C)C(=O)[C@H]1CCCN1C(=O)c1cccc(C(=O)N2CCC[C@H]2C(=O)N2CCC[C@@H]2C#N)c1
78 nM | – | 2.7 | O=C(C1CCCC1)[C@H]1CCCN1C(=O)c1cccc(C(=O)N2CCC[C@H]2C(=O)C2CCCC2)c1
65 nM | – | – | CC(=O)[C@H]1CCCN1C(=O)c1cccc(C(=O)N2CCC[C@H]2C(=O)N2CCCC2)c1
0.72 nM | – | – | N#C[C@H]1CCCN1C(=O)[C@@H]1CCCN1C(=O)c1cccc(C(=O)N2CCC[C@@H]2C(=O)C2CCCCC2)c1
4.2 nM | – | -0.6 | CC(=O)[C@H]1CCCN1C(=O)c1cccc(C(=O)N2CCC[C@H]2C(=O)N2CCC[C@@H]2C#N)c1
0.61 nM | – | 0.2 | O=C(CO)[C@H]1CCCN1C(=O)[C@@H]1CCCN1C(=O)c1cccc(C(=O)N2CCC[C@@H]2C(=O)C2CCCC2)c1
640 nM | – | – | COC(=O)[C@H]1CCCN1C(=O)c1cccc(C(=O)N2CCC[C@H]2C(=O)C2CCCC2)c1
1.1 nM | – | 0.8 | N#C[C@H]1CCCN1C(=O)[C@@H]1CCCN1C(=O)c1cccc(C(=O)N2CCC[C@@H]2C(=O)C2CCCC2)c1
– | – | 0.7 | CC(C)(CC(=O)N1CCC[C@H]1C(=O)C1CCCC1)CC(=O)N1CCC[C@H]1C(=O)N1CCC[C@H]1C(=O)CO
1.2 nM | – | – | CC(=O)[C@H]1CCCN1C(=O)c1cccc(C(=O)N2CCC[C@H]2C(=O)N2CCC[C@@H]2C(=O)CO)c1
0.39 nM | – | – | O=C(CO)[C@@H]1CCCN1C(=O)[C@@H]1CCCN1C(=O)c1cccc(C(=O)N2CCC[C@H]2C(=O)N2CCCC2)c1
